Data on two compounds can be found in publication PMC10299677, “Fluorinated Benzofuran and Dihydrobenzofuran as Anti-Inflammatory and Potential Anticancer Agents” (International Journal of Molecular Sciences, 2023).

SMILES strings stand for the structures.

Data set [1] in a line: Toxicity on macrophages (BMDM), WST-1 assay. The data set is classed as cell-based, C57BL/6J mice. The note with it: C57BL/6J, mouse, bone marrow-derived macrophages (BMDM), read-out: macrophage viability. The method, then:
WST-1 assay (Sigma-Aldrich, 5015944001) was used to determine the toxicity of the synthesized compounds on BMDM and HCT116 (ATCC, CCL-247), kindly provided by Dr. Nadine Darwiche, Department of Biochemistry and Molecular Genetics, American University of Beirut, Lebanon. Briefly, macrophages (50,000 cells per well) and HCT116 (20,000 cells per well) were plated in a 96-well plate in RPMI 1640 culture medium containing 10% fetal bovine serum (FBS) and grown for 24 h. Cells (in triplicates) were treated with 10 or 50 μM of the compounds for macrophages, and 50 or 100 μM for HCT116. Culture medium without cells and cells without treatment were used as basal and maximal activity, respectively. Results were expressed as percentage of cells without treatment.
F i g u re S1: E ff e c t of fluorin at ed benzofuran derivatives on m acrophages
viabilit y. C ells in cub at ed with 10 and 50 μM of benzofuran d eri vativ es
(compounds 1 to 9) bel onging to groups І, II, III and IV for 24 hours. Cell
viabilit y w as det ermin ed by WST-1 assay. Non-t r eated m acrophages wer e used
as cont rol. Results were shown as mean ± SEM (n=3) . *p< 0.05 comp ar ed to the
vehicle –treated cells (basal), one-way ANOVA followed by Dunnett’s test.
(1 picture or pasted object on this page, not shown here)

The test system of data set [2] is Bcl-2. The data set can be described thus: Bcl-2 protein expression in HCT116 (Western blot). The data set is classed as cell-based, human. To be noted: 10, 25 and 50 µM, 72 h. The method, then:
(§1) Macrophages were incubated with the compounds for 30 min prior to the addition of 10 ng/mL LPS for 24 h. Protein levels for COX-2 and NOS2 were detected in LPS-stimulated macrophages. As previously described, 10 µg of total protein was assessed. The primary antibodies were developed and characterized as previously described: for COX-2, mouse monoclonal antibody anti-COX-2 (clone COX-214, 1/5000); for NOS2, rabbit polyclonal antibody anti-NOS2 (dilution1/2000 [33]). Antibodies anti-phospho-NF-κB (3033S), phospho-IκBα (9246S), and total IκBα (4814S) were from Cell Signaling Technologies (Danvers, MA, USA). Total NF-κB C-20 (sc-372) was from Santa Cruz Biotechnologies (Dallas, TX, USA), and mouse β-actin (dilution 1/10,000) (Sigma-Aldrich, A5441). Clarity™ western ECL substrate (Bio-Rad Laboratories 10-5061) was used according to the manufacturer’s instructions to reveal positive bands visualized using Bio-Rad ChemiDoc. For Bcl-2 and cleaved PARP-1, HCT116 cells were plated in 6-well plates (200,000 cells per well) for 24 h, and treated with compounds 1 and 2 at 10, 25, and 50 µM for 72 h. Supernatants and cells were collected and lysed using RIPA lysis buffer containing inhibitors of protease. […]
A general note: In western blotting, separated proteins are transferred to a membrane and probed.

Data set [3] concerns HCT116 cells. The data set can be described thus: HCT116 proliferation (WST-1 assay). To be noted: for inhibition of HCT116 cell proliferation: 50 and 100 µM, 72 h; for IC50: Homo sapiens, HCT-116, 72 h. The data set is classed as cell-based, human. The procedure: WST-1 assay was used to determine the effect of these compounds on HCT116 proliferation. Cells were plated in 96-well plate in triplicates (5000 cells per well) for 24 h and treated with 50 and 100 µM of the different compounds for 72 h. […] Culture medium without or with 10% FBS alone was used as basal and maximal proliferation, respectively. Results were expressed as percentage of cells incubated with 10% FBS alone.
Densitometric analyses were performed using ImageJ software (NIH, MA, USA). The ratio of the different analyzed bands to β-actin was determined and data are represented as fold change compared to the LPS-treated cells. Percentage of viable cells for proliferation assay was determined as percentage to control (non-treated cells). For TUNEL assay, apoptotic cells were quantified, and results were expressed as percentage to positive cells (cleaved DNA) compared to control (non-treated cells). Statistical analysis was performed using one-way ANOVA, followed by Dunnett’s multiple comparisons test using GraphPad Prism software. Differences were considered significant when p < 0.05.
(Tetrazolium dyes change colour on reduction, which living cells bring about.)

Data set [4] deals with PARP-1. Briefly: Cleaved PARP-1 protein in HCT116 (Western blot). The data set is classed as cell-based, human. To be noted: 10, 25 and 50 µM, 72 h. The method, then:
as §1

As a reminder, the viability is a read-out of living cells in per cent, often relative to untreated cells. Broadly, the IC50 is the concentration that gives 50% inhibition. Read a low IC50 as higher potency. Consider `COC(=O)/C=C1/Oc2ccc(Br)cc2C1(F)F` [Compound 1], for which the viability at 24 h, 50 µM in data set [1] was found to be 50%. Moreover, the “expression of antiapoptotic protein Bcl-2” value in data set [2] is “decreased”. For the same compound, in data set [3], the “inhibition of HCT116 cell proliferation” value was “more than 50%” and the IC50 was determined as 19.5 µM. Further, the “protein level of cleaved PARP-1” value in data set [4] is given as “increase”.

In the case of `O=C(O)/C=C1/Oc2ccc(Br)cc2C1(F)F` [Compound 2], the “expression of antiapoptotic protein Bcl-2” value in data set [2] was “decreased”. Also, in data set [3], the “inhibition of HCT116 cell proliferation” value was “more than 50%” and the IC50 came out at 24.8 µM. Also, in data set [4], the “protein level of cleaved PARP-1” value is “increase”.
